Results as given in EP1191024A1, “Thiadiazines and their use as inhibitors of metalloproteinases” (Tschesche, Harald, priority 2000, dated 2002).
Structures can show the parent of a compound that is named as a salt. Where two headings read alike, the source gives them in different places.

What was measured:
Assay in all cases: MMP microfluorometric profiling assay (fluorogenic Mca-peptide substrate)
Format in all cases: biochemical
MMP-1 = molecular target: T1, MMP-1 (Homo sapiens, UniProt P03956)
T1 construct: MMP-1 from human rheumatoid synovial fibroblasts was purchased; purchased Calbiochem-Novabiochem Corporation, LaJolla; host or cells: human rheumatoid synovial fibroblasts
T1 sequence (P03956 100-469): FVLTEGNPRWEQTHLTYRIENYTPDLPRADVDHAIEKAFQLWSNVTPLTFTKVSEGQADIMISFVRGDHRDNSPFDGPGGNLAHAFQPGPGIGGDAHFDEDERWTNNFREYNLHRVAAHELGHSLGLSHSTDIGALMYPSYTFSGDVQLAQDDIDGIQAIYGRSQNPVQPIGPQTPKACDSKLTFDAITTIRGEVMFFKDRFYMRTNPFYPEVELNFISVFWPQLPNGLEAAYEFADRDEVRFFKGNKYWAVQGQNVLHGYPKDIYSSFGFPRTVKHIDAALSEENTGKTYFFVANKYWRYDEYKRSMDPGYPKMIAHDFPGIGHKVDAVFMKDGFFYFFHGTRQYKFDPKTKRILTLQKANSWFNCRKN
Method: (§1) The tested MMP enzymes were prepared more specifically in the laboratories of the applicants, with the exception of MMP-1. MMP-1 from human rheumatoid synovial fibroblasts was purchased from Calbiochem-Novabiochem Corporation, LaJolla. Preparation of the recombinant catalytic domain of human Gelatinase A (cdMMP-2): The catalytic domain of Pro-Gelatinase A was prepared using an E. coli expression system according to the method described by Kröger et al^[19]. The proenzyme was activated with 0.5 mM APMA at 37°C prior to use in the assay. Preparation of the recombinant catalytic domain of human neutrophile Collagenase (cdMMP-8^Met80): The enzyme was expressed in E. coli as an active variant by the method of Kleine et al^[20]. Preparation of PMNL-Gelatinase (MMP-9): Latent PMNL-pro-Gelatinase was prepared from human plasma buffy coat as described by Tschesche et al^[21]. PMNL-pro-Gelatinase was activated prior to use by incubation with Trypsin at 37°C for 10 min. Inactivation of Trypsin was accomplished with TKI. Preparation of the recombinant catalytic domain of human Macrophage Elastase (cdMMP-12): The catalytic domain of MMP-12 was expressed in E. coli. The overexpressed protein was isolated as inclusion bodies and the renatured protein was purified by affinity chromatography with a hydroxamate inhibitor coupled column as described^[22]. Preparation of the recombinant catalytic domain of human Collagenase-3 (cdMMP-13): Human pro-cdMMP-13 was prepared using an E. coli expression system according to the method described^[23]. The isolated pro-cdMMP-13 was activated prior to use by incubation with 5 mM HgCl2 for 2 h at 37°C. Preparation of the recombinant catalytic domain of Membrane-Type-1 MMP (cdMMP-14): The catalytic domain of MMP-14 was expressed in E. coli and was activated by autocatalysis^[24]. Preparation of the recombinant human ectodomain of Membrane-Type-1 MMP (ΔTM-MMP-14): The ectodomain of MMP-14 was expressed in Pichia Pastoris by the method of Roderfeld et al. and activated by yeast proteases (Furin-like-proteases) during maturation^[25].
(§2) The enzymatic activity was measured using a modified version of a resonance energy transfer fluorogenic assay as described^[26]. Progress curves were monitored by following the increase in fluorescence at 393 nm (λex = 328 nm), induced by the cleavage of the (7-methoxycoumarin-4-yl)acetyl-Pro-Leu-Gly-Leu-(3-[2,4-dinitro-phenyl]-L-2,3-diamino-propionyl)-Ala-Arg-NH2 (Mca-Pro-Leu-Gly-Leu-Dpa-Ala-Arg-NH2) fluorogenic substrate by MMPs. The fluorescent MCA-group is quenched by resonance energy transfer to the 2,4-dinitrophenyl group. Matrix metalloproteinases cleave this substrate at the Gly-Leu bond. Cleavage results in the loss of energy transfer and a large increase in fluorescence of the MCA group. This substrate is commercially available from Bachem, Switzerland.
(§3) Enzyme inhibition assays were carried out in MRB which consisted of 50 mM HEPES/NaOH, pH 7.0, 10 mM CaCl2 and 0,02% (w/v) PEG 8000 at 25°C. MMP microfluorometric profiling assay was done in white U-bottomed 96-well plates (Microfluor 1 White, Dynex, USA) with a final substrate concentration of 6 µM MCA-peptide, approximately 0.3 to 5 nM MMP with variable inhibitor concentrations and 2% DMSO vehicle. From a 1.5 mM stock (100% DMSO) the inhibitors were serially diluted with MRB to 15, 10, 5, 3, 1, 0.6, 0.3, 0.1, 0.05, 0.01 and 0.005 µM final assay concentration. Column 1, rows A through H, contained only DMSO for the "enzyme-only" wells in the assay. After preincubation for 30 min at 25°C the reaction was started by addition of substrate and the plate was read on a SpectraFluor Plus (Tecan, Germany) plate reader with excitation at 330 nm and emission at 405 nm with the gain set to 150. Each measurement was done in triplicate to ensure statistically significant results. […]

MMP-9 = molecular target: T2, MMP-9 (Homo sapiens, UniProt P14780); settings: for percent inhibition: MMP-9, @ 15 (µM)
T2 construct: from tissue; host or cells: human plasma buffy coat (PMNL)
Method: as §1, §2, §3

cdMMP-12 = molecular target: T3, cdMMP-12 (Homo sapiens, UniProt P39900)
T3 construct: The catalytic domain of MMP-12 was expressed in E. coli; made in house; host or cells: E. coli
Method: as §1, §2, §3

cdMMP-13 = cdMMP-13 (Homo sapiens, UniProt P45452); settings: for percent inhibition: cdMMP-13, @ 15 (µM)
Method: as §1, §2, §3

cdMMP-14 = molecular target: T4, cdMMP-14 (Homo sapiens, UniProt P50281); settings: for percent inhibition: cdMMP-14, @ 15 (µM)
T4 construct: made in house; host or cells: E. coli
Method: as §1, §2, §3

T3 sequence (P39900 106-263 limits assumed): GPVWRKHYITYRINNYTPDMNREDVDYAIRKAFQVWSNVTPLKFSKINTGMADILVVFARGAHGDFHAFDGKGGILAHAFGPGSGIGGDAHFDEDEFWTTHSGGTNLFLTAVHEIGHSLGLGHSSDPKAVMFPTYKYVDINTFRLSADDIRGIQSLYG
T2 sequence (P14780 107-707 limits assumed): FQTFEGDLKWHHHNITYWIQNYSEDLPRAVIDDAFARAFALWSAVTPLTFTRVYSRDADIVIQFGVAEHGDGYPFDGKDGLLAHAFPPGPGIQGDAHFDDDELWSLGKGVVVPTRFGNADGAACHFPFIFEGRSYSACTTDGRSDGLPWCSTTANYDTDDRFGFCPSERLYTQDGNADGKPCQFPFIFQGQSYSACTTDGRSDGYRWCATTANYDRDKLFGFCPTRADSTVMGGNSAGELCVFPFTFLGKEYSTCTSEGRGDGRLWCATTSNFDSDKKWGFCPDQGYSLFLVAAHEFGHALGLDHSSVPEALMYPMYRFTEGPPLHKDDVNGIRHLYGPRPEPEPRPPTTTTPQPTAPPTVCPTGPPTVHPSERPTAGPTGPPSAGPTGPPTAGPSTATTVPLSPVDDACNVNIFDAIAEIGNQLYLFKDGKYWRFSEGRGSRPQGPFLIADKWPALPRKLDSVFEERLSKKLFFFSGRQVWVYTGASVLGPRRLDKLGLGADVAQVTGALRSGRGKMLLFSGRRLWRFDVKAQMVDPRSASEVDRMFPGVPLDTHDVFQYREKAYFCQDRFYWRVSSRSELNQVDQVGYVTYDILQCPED

SMILES | percent inhibition (MMP-1; MMP-1, @ 15 (µM)) [%^a)@ 15] | percent inhibition (MMP-9) [%^a)@ 15] | IC50 (cdMMP-12) [nM] | percent inhibition (cdMMP-13) [%^a)@ 15] | percent inhibition (cdMMP-14) [%^a)@ 15] | IC50 (MMP-1) [nM] | IC50 (MMP-9) [nM] | IC50 (cdMMP-13; read-out: cdMMP-13 IC50) [nM] | IC50 (cdMMP-14) [nM] | IC50 (cdMMP-13) [nM]
O=C(CC1NC(=O)NC1=O)NC1=NN=C(c2ccc(C3CCCCC3)cc2)CS1 (stereo not shown) [Example 25, N-[5-(4-Cyclohexylphenyl)-6H-1,3,4-thiadiazin-2-yl]-2-(2,5-dioxo-4-imidazolidinyl)acetamide] | 67 | 49 | 1420 | 67 | 66 |  |  |  |  | 
CC(C)(C)c1ccc(S(=O)(=O)NCC(=O)NC2=NN=C(c3ccc(Cl)cc3Cl)CS2)cc1 [Example 18, 2-{[(4-tert-Butylphenyl)sulfonyl]amino}-N-[5-(2,4-dichlorophenyl)-6H-1,3,4-thiadiazin-2-yl]acetamide] |  |  | 657 |  |  | 424 | 2600 | 1410 | 780 | 
O=C(CC1NC(=O)NC1=O)NC1=NN=C(c2ccc(Cl)cc2)CS1 (stereo not shown) [Example 23, N-[5-(4-Chlorophenyl)-6H-1,3,4-thiadiazin-2-yl]-2-(2,5-dioxo-4-imidazolidinyl)-acetamide] |  | 40 | 380 | 34 | 52 |  |  |  |  | 
C[C@H](NS(=O)(=O)c1ccccc1)C(=O)NC1=NN=C(c2ccc([N+](=O)[O-])cc2)CS1 [Example 9, (2S)-N-[5-(4-Nitrophenyl)-6H-1,3,4-thiadiazin-2-yl]-2-[(phenylsulfonyl)amino]-propanamide] |  |  | 342 |  |  | 294 | 552 | 449 | 556 | 
C[C@@H](NS(=O)(=O)c1ccccc1)C(=O)NC1=NN=C(c2ccc(F)cc2)CS1 [Example 14, (2R)-N-[5-(4-Fluorophenyl)-6H-1,3,4-thiadiazin-2-yl]-2-[(phenylsulfonyl)amino]-propanamide] |  |  | 425 |  |  | 725 | 216 | 537 | 727 | 
O=C1C[C@@H](C(=O)NC2=NN=C(c3ccc(Cl)cc3)CS2)NC(=O)N1 [Example 30, (4S)-N-[5-(4-Chlorophenyl)-6H-1,3,4-thiadiazin-2-yl]-2,6-dioxohexahydro-4-pyrimidinecarboxamide] |  |  | 654 |  |  | 560 | 780 | 947 | 477 | 
O=C(CC1NC(=O)NC1=O)NC1=NN=C(c2ccc(Br)cc2)CS1 (stereo not shown) [Example 24, N-[5-(4-Bromophenyl)-6H-1,3,4-thiadiazin-2-yl]-2-(2,5-dioxo-4-imidazolidinyl)-acetamide] |  | 45 | 297 | 39 |  |  |  |  | 1070 | 
COc1ccc(S(=O)(=O)NCC(=O)NC2=NN=C(c3ccc(Cl)cc3Cl)CS2)cc1 [Example 19, N-[5-(2,4-Dichlorophenyl)-6H-1,3,4-thiadiazin-2-yl]-2-{[(4-methoxyphenyl)-sulfonyl]amino}acetamide] |  |  | 259 |  |  |  | 661 | 605 | 700 | 
CC(C)[C@H](NS(=O)(=O)c1ccccc1)C(=O)NC1=NN=C(c2ccc(Cl)cc2)CS1 [Example 22, (2S)-N-[5-(4-Chlorophenyl)-6H-1,3,4-thiadiazin-2-yl]-3-methyl-2-[(phenylsulfonyl)amino]butanamide] |  |  | 463 |  |  |  | 851 | > 15000 | 1400 | 
CC(C)[C@@H](NS(=O)(=O)c1ccccc1)C(=O)NC1=NN=C(c2ccc(Cl)cc2)CS1 [Example 2, (2R)-N-[5-(4-Chlorophenyl)-6H-1,3,4-thiadiazin-2-yl]-3-methyl-2-[(phenylsulfonyl)amino]butanamide] |  | 40 | 426 |  |  | 629 |  | > 15000 | 1110 | 
C[C@H](NS(=O)(=O)c1ccccc1)C(=O)NC1=NN=C(c2ccc(C#N)cc2)CS1 [Example 3, (2S)-N-[5-(4-Cyanophenyl)-6H-1,3,4-thiadiazin-2-yl]-2-[(phenylsulfonyl)amino]-propanamide] |  |  | 447 |  |  | 449 | 329 | 387 | 459 | 
C[C@H](NS(=O)(=O)c1ccccc1)C(=O)NC1=NN=C(c2ccc(Cl)s2)CS1 [Example 10, (2S)-N-[5-(5-Chloro-2-thienyl)-6H-1,3,4-thiadiazin-2-yl]-2-[(phenylsulfonyl)-amino]propanamide] |  |  | 298 |  |  | 520 | 722 | 853 | 605 | 
COc1ccc(S(=O)(=O)N[C@@H](C)C(=O)NC2=NN=C(c3ccc(C)cc3)CS2)cc1 [Example 17, (2S)-2-{[(4-Methoxyphenyl)sulfonyl]amino}-N-[5-(4-methylphenyl)-6H-1,3,4-thiadiazin-2-yl]propanamide] |  |  | 436 |  |  |  | 689 | 1110 | 707 | 
O=C(CC1NC(=O)NC1=O)NC1=NN=C(c2ccc(N3CCCC3)cc2)CS1 (stereo not shown) [Example 26, 2-(2,5-Dioxo-4-imidazolidinyl)-N-{5-[4-(1-pyrrolidinyl)phenyl]-6H-1,3,4-thiadiazin-2-yl}acetamide] |  |  | 217 | 36 |  |  | 517 |  | 1100 | 
C[C@H](NS(=O)(=O)c1ccccc1)C(=O)NC1=NN=C(c2ccc(Br)cc2)CS1 [Example 6, (2S)-N-[5-(4-Bromophenyl)-6H-1,3,4-thiadiazin-2-yl]-2-[(phenylsulfonyl)amino]-propanamide] |  |  | 533 |  |  |  | 686 |  | 637 | 658
COc1ccc(S(=O)(=O)NCC(=O)NC2=NN=C(c3c(F)c(F)c(F)c(F)c3F)CS2)cc1 [Example 16, 2-{[(4-Methoxyphenyl)sulfonyl]amino}-N-[5-(2,3,4,5,6-pentafluorophenyl)-6H-1,3,4-thiadiazin-2-yl]acetamide] |  |  | 920 |  |  |  | 2570 | 1090 | 1760 | 
C=CCNC1=NN=C(c2ccc(Cl)cc2)CS1 [Example 31, N-Allyl-5-(4-chlorophenyl)-6H-1,3,4-thiadiazin-2-amine hydrobromide] |  |  | > 15000 |  |  |  | 783 |  | 2700 | > 15000
